Values belong to the molecule of their own block, whether it stands above or below them.
Assays:
tyrosinase = assay: Inhibition of tyrosinase activity (absorbency at 475 nm); format: biochemical; settings: 1.0% sample
Experimental: Although the formation of black pigment melanin on skin is complicated, it is generally realized that tyrosine is oxidized to DOPA (Dihydroxy Phenyalanine) by the catalysis of tyrosinase from melansome of melanocyte. The DOPA is further oxidized and finally converted into colored melanin-protein complex. […] Determination of total absorbency at wavelength of 475 nm: To a 25 ml sample test tube, add 0.9 ml of 0.1M phosphate buffer solution (pH 6.8), 1 ml of γ-polyglutamate (Na^+ form) sample and 1 ml of 0.25 mg/ml tyrosine solution and mix well, then incubate at 37° C. for 10 minutes. […] Sample of the reaction solution is then taken for measuring the absorbency at 475 nm, and recorded as At. • b. Determination of the blank absorbance of tyrosinase solutuion: Replace 0.1 ml of buffer solution with tyrosinase solution, and repeat the same procedure in item (a), and record the absorbency at 475 nm as A1. • c. Replace 1 ml sample solution with buffer solution, and repeat the same procedure in item (a), and record the absorbance at 475 nm as Ab. • d. Determination of total blank absorbance of test solution: Replace 1 ml sample solution with buffer solution, and 0.1 ml of tyrosinase solution with buffer solution, and repeat the procedure in item (a), and record the absorbency at 475 nm as Ao. • e. […]

[1] = test system: inside skin surface of a test panelist's arm; assay: Water retention on skin after skin vital moisture cream (capacitance, Skin Analysis SHP88); format: in vivo, human (panelists); settings: 5% moisturizer in cream
[2] = test system: outside skin surface of the arm of a test panelist; assay: Moisture retention of skin after peeling off facial moisture mask (capacitance, SHP88); format: in vivo, human (panelists); settings: 5.0% moisturizer in facial moisture mask; mask film peeled off after 15 minutes; 23° C., RH 65%
Experimental: The species and proportions of the ingredients contained in the exemplified facial moisture mask formulation are listed in Table 5.
The samples of 0.2 grams from experimental example 4 were taken and evenly spread over an area of 25 cm^2 on the outside skin surface of the arm of a test panelist, and the film formation time was closely observed and recorded (see Characteristic Properties of N-Carboxybutyl Chitosan. Carbohydr. Polym. 11:307-320, 1989, Muzzarelli, R. A. A. et al.) at 23° C. under an environment of relative humidity (RH) of 65%. A group of 10 panelists participated in this test. In a separate experiment, the mask film formed after 15 minutes was peeled off, then the […] of the skin was measured at 23° C. under an environment of relative humidity of 65% with a probe of the Skin Analysis SHP88 of Courage ^+Khazaka Electronic Gmbh, Germany. The moisture retention of the skin was immediately measured at 23° C. under an environment of relative humidity of 65% with a probe of the Skin Analysis SHP88, and expressed in unit of capacitance increase ratio, %.

Inhibition of Tyrosinase Activity (tyrosinase): 100.0%
Structure (SMILES): O=c1cc(CO)occ1O [Kojic Acid]

Structure (SMILES): CC(O)CO (stereo not shown) [Propylene Glycol]
Capacitance Increase Ratio ([1]; time 0 min): 0%
Capacitance Increase Ratio ([1]; time 5 min): 105%
Capacitance Increase Ratio ([1]; time 10 min): 57%
Capacitance Increase Ratio ([1]; time 20 min): 51%
Capacitance Increase Ratio ([1]; time 40 min): 40%
Capacitance Increase Ratio ([1]; time 80 min): 38%
Capacitance Increase Ratio ([1]; time 120 min): 36%

Inhibition of Tyrosinase Activity (tyrosinase): 99.4%
Structure (SMILES): O=C1O[C@H]([C@@H](O)CO)C(O)=C1O [Vitamin C]

Structure (SMILES): CC(O)CCO (stereo not shown) [1,3-BG, 1,3-Butyl Glycol]
Capacitance Increase Ratio [2]: 73.2%

Reference: US20060153785A1, “Moisturizers comprising one or more of gamma-polyglutamic acid (gamma-PGA, H form), gamma-polyglutamates and gamma-polyglutamate hydrogels for use in cosmetic or personal care products” (priority 2005, published 2006)
